Experimental data taken from patent US11299715B2, “Use of iNOS inhibitors to increase viral yield in culture” (priority 2013, dated 2022).

Tests used:
Assay type in all cases: cell-based, HSV-1
wtHSV-1 KOS strain = wtHSV-1 KOS strain propagation in 293, HeLa and Vero cells with ATA
Text: (§1) The wtHSV-1 KOS strain and the ICP27-deficient derivatives of the wtHSV-1 KOS strain: vectors d27-1 (Rice and Knipe, J. Virol. (1990) 64:1704-1715), rHSV-rep2/cap2 and rHSV-EGFP (Kang et al., Gene Ther. (2009) 16:229-239) and their producer ICP27-complementing V27 cell line were obtained from AGTC (Alachua, Fla.). The wtHSV-1 MacIntyre strain, purchased from Advanced Biotechnologies Inc. (ABI, Columbia Md.) and wtHSV-1 KOS strain were propagated in Vero, 293 or HeLa cell lines. Infectious vector particles were harvested 72 hr postinfection by recovering culture supernatant. The titers of HSV-1 stocks in DNase resistant particles/ml (DRP/ml) were determined by Taqman assay. Viral genomes within crude culture medium were quantified via treatment in the presence of DNase I (50 U/ml final; Promega) at 37° C. for 60 min, followed by proteinase K (Invitrogen) digestion (1 U/ml) at 50° C. for 60 min, and then denatured at 95° C. for 30 min. Linearized plasmid pZero 195 UL36 (obtained from AGTC, Inc., Alachua, Fla.) was used to generate standard curves.
(§2) ATA (Sigma-A1895 Aurintricarboxylic acid practical grade, ≥85% (titration), powder) stock solution was generated as 500 μM concentration in 100 mM sodium bicarbonate water solution. ATA stock solution was further diluted in DMEM+/−10% fetal bovine serum (FBS, Hyclone, Waltham, Mass.) into concentration ranges of […] ATA (8.5-21 μgATA/ml). The HSV-1 infection at multiplicity of infection of 0.15 (MOI=0.15) (typically 6×10^5 cells in a 6-well plate) was performed in 40% (⅖ vol) of the total final media volume for 1-2 hrs and the remaining media (60% or ⅗ of the total final volume) was added during the dilution step. The cells were then incubated 72 hours and supernatant harvested to perform forming units per milliliter (PFU/ml) and DRP/ml titer assays.
(§3) Supernatants containing virus were harvested after three days as described above. […] Finally, ATA also appeared to inhibit both types of HSV-1 viruses in HeLa cells. Two-way ANOVA; Bonferroni test; −ATA vs. +ATA: ***: p<0.001, ns: p>0.05; n=4 independent experiments.
(§4) In order to illuminate the ATA mechanism of action by human genome array and the fact that Vero and V27 are monkey-derived cell lines, wtHSV-1 propagation was tested in several human cell lines (FIGS. 4A-4B). A propagation of two wild type HSV-1 (wtHSV-1) strains, KOS and McIntyre, were compared in three cell lines: human embryonic kidney 293 (293 cells), human cervical cancer HeLa cells and African green monkey kidney epithelial Vero cells. The experiments were carried out in 10% FBS-containing media following the ATA I protocol scheme, where 50 μM ATA was supplemented during the infection step and further diluted to 20 μM ATA concentration (see Material and Methods).

wtHSV-1 McIntyre strain = wtHSV-1 McIntyre strain propagation in 293, HeLa and Vero cells with ATA
Text: as §1, §2, §3
For statistical calculations, a larger study with a set of ten independent experiments (n=10) was conducted in 6-well plates with or without ATA added during the infection step (Step 1) comparing replication-deficient d27-GFP and also wtHSV-1 McIntyre strain in order to investigate, whether ATA could increase the titer in the wtHSV-1 strain as well (FIG. 4B). ATA was added at […] to confluent cell monolayers, V27 cells for d27-1 or 293 cells for wtHSV-1 McIntyre, during the infection step (Step 1) and the cells were infected with vectors at MOI=0.15 while ATA was diluted 1 hr later to a final […] concentration.
as §4

[1] = test system: rHSV-1 d27-1 (d27-1) vector; experiment: ATA-HSV protocol: rHSV-1 d27-1 vector yield in V27 cell supernatants; conditions: V27 cells, n=10, ATA 50 μM at Step 1, final 20 μM
[2] = 50 μM ATA at Step 1, 20 μM after Step 2, 293 cells
[3] = 50 μM ATA at Step 1, 20 μM after Step 2, HeLa cells
[4] = 50 μM ATA at Step 1, 20 μM after Step 2, Vero cells, 10% FBS

## O=C(O)C1=CC(=C(c2ccc(O)c(C(=O)O)c2)c2ccc(O)c(C(=O)O)c2)C=CC1=O [ATA, 5-((3-carboxy-4-hydroxyphenyl)(3-carboxy-4-oxo-2,5-cyclohexadien-1-ylidene)methyl)-2-hydroxybenzoic acid]
wtHSV-1 KOS strain; [2]
  HSV-1 KOS growth in 293 cells: inhibit
wtHSV-1 KOS strain; [3]
  propagation of HSV-1 KOS in HeLa cells: inhibit
wtHSV-1 KOS strain; [4]
  yield of wtHSV-1 KOS in Vero cells: increased
wtHSV-1 KOS strain; 50 μM ATA at infection, diluted to 20 μM, 10% FBS, n=4, without ATA 1.7×10^8
  wtHSV-1 KOS titer in Vero cells: 9.1×10^8 DRP/ml
wtHSV-1 KOS strain; summary statement
  293 or Vero titers with ATA, KOS: up to 1×10^9 DRP/ml
  increase of wt HSV-1 KOS yields: 1 log
wtHSV-1 McIntyre strain; [2]
  wtHSV-1 McIntyre titers in 293 cells: reached the highest titers
wtHSV-1 McIntyre strain; [3]
  propagation of HSV-1 McIntyre in HeLa cells: inhibit
wtHSV-1 McIntyre strain; [4]
  yield of wtHSV-1 McIntyre in Vero cells: increased
wtHSV-1 McIntyre strain; 50 μM ATA at infection, diluted to 20 μM, 10% FBS, n=4, without ATA 1.4×10^8
  wtHSV-1 McIntyre virus titer in 293 cells: 1.2×10^9 DRP/ml
wtHSV-1 McIntyre strain; 293 cells, 6-well plates, n=10, ATA 50 μM at Step 1, final 20 μM, MOI 0.15
  increase of wtHSV-1 McIntyre titer after ATA addition: 9.1 times
wtHSV-1 McIntyre strain; 293 cells, n=10, ATA 50 μM at Step 1, final 20 μM, without ATA 3.3×10^8
  wtHSV-1 McIntyre titer after ATA addition: 1.0×10^9 DRP/ml
wtHSV-1 McIntyre strain; summary statement
  293 or Vero titers with ATA, McIntyre: up to 1×10^9 DRP/ml
  increase of wt HSV-1 McIntyre yields: 1 log
[1]; 6-well plates, MOI 0.15
  increase of d27-1 titer after ATA addition: 6.1 times
[1]; without ATA 5.4×10^7
  d27-1 titer after ATA addition: 1.1×10^8 DRP/ml
